The record followed here is ChEMBL document CHEMBL4706734, “Novel Hexahydropyrimidine Compounds for Treating Malaria” (ACS Med Chem Lett, 2021).

The experiment relates to Plasmodium falciparum. Kind of experiment: Antimalarial activity against asexual blood stage of Plasmodium falciparum 3D7 infected in human erythrocytes assessed as inhibition of parasite growth and propagation incubated for 72 hrs by SYBR green dye based fluorescence assay. It is filed as functional, organism-based. The settings on record: 3D7, Erythrocyte.
Regarding `C[C@@H]1C[C@H](N2C(=N)N[C@](C)(c3cccc(NC(=O)c4cc(C#N)cn4C)c3Cl)CC2=O)CCO1`, the IC50 came out at 5 nM.
In the case of `C[C@@H]1C[C@H](N2C(=N)N[C@](C)(c3cccc(NC(=O)c4cccc(C#N)c4F)c3Cl)CC2=O)CCO1` it was 6 nM; in that of `C[C@@H]1C[C@H](N2C(=N)N[C@](C)(c3cccc(NC(=O)c4cccc(C#N)c4)c3Cl)CC2=O)CCO1`, 8 nM.
In the case of `C[C@@H]1C[C@H](N2C(=N)N[C@](C)(c3cccc(NC(=O)c4cccc(Cl)c4)c3Cl)CC2=O)CCO1` it was 9 nM; in that of `Cc1cc(Cl)cc(C(=O)Nc2cccc([C@]3(C)CC(=O)N([C@@H]4CCO[C@H](C)C4)C(=N)N3)c2Cl)c1`, 9 nM; in that of `C[C@@H]1C[C@H](N2C(=N)N[C@](C)(c3cccc(NC(=O)c4cc(Cl)cc(C#N)c4)c3Cl)CC2=O)CCO1`, 7 nM.
